# Values quoted from earlier work in publication PMC6318274, “Lattice engineering enables definition of molecular features allowing for potent small-molecule inhibition of HIV-1 entry” (Nature Communications, 2019).
# Like-named read-outs stand apart in the source and are kept apart here.
# Tested on: HIV-1 Env-pseudoviruses (208-strain panel)
# Details: cited from earlier work; for IC50: read-out: IC50; for % Neutralized / Total Neutralized: 208 viruses
structure (smiles),measurement,setting,value
COc1cnc(-n2cnc(C)n2)c2[nH]cc(C(=O)C(=O)N3CCN(C(=O)c4ccccc4)CC3)c12 [BMS-626529],IC50,"CNE20, clade BC",339 nM
same,IC50,"CNE21, clade BC",2 nM
same,IC50,"CNE30, clade C",1 nM
same,IC50,"CNE31, clade C",23 nM
same,IC50,"CNE40, clade BC",38 nM
same,IC50,"CNE53, clade C",0.5 nM
same,IC50,"CNE55, clade AE",4770 nM
same,IC50,"CNE56, clade AE",> 20000 nM
same,IC50,"CNE57, clade B",2 nM
same,IC50,"CNE58, clade C",4 nM
same,IC50,"CNE59, clade AE",> 20000 nM
same,IC50,"Ce1176.A3, clade C",10 nM
same,IC50,"DJ263.8, clade AG",11 nM
same,IC50,"DU123.06, clade C",5 nM
same,IC50,"DU151.02, clade C",6 nM
same,IC50,"DU156.12, clade C",3 nM
same,IC50,"DU172.17, clade C",8 nM
same,IC50,"DU422.01, clade C",8 nM
same,IC50,"HO86.8, clade B",20 nM
same,IC50,"HT593.1, clade B",0.9 nM
same,IC50,"HXB2.DG, clade B",1 nM
same,% Neutralized,IC50 <0.01ug/ml,46%
same,Total Neutralized,IC50 <0.01ug/ml,95
same,% Neutralized,IC50 <0.1ug/ml,71%
same,Total Neutralized,IC50 <0.1ug/ml,147
same,% Neutralized,IC50 <1.0ug/ml,80%
same,Total Neutralized,IC50 <1.0ug/ml,167
same,% Neutralized,IC50 <10ug/ml,89%
same,Total Neutralized,IC50 <10ug/ml,185
same,% Neutralized,IC50 <50ug/ml,91%
same,Total Neutralized,IC50 <50ug/ml,189
same,IC50,"JRCSF.JB, clade B",0.3 nM
same,IC50,"JRFL.JB, clade B",0.4 nM
same,IC50,"KER2008.12, clade A",1870 nM
same,IC50,"KER2018.11, clade A",8 nM
same,IC50,"KNH1209.18, clade A",29 nM
same,IC50,"M02138, clade AE",2810 nM
same,IC50,"MB201.A1, clade A",628 nM
same,IC50,"MB539.2B7, clade A",191 nM
same,IC50,"MI369.A5, clade A",13 nM
same,IC50,"MN.3, clade B",10 nM
same,IC50,"MS208.A1, clade A",11 nM
same,IC50,"MW965.26, clade C",433 nM
same,IC50,"NKU3006.ec1, clade D",5 nM
same,IC50,"P0402.c2.11, clade G",32 nM
same,IC50,"P1981.C5.3, clade G",209 nM
same,IC50,"PVO.04, clade B",3 nM
same,IC50,"Q23.17, clade A",12 nM
same,IC50,"Q168.a2, clade AD",115 nM
same,IC50,"Q259.17, clade A",1230 nM
same,IC50,"Q461.e2, clade AD",12 nM
same,IC50,"Q769.d22, clade A",123 nM
same,IC50,"Q769.h5, clade A",427 nM
same,IC50,"Q842.d12, clade A",17 nM
same,IC50,"QH209.14M.A2, clade A",610 nM
same,IC50,"QH0515.01, clade B",12 nM
same,IC50,"QH0692.42, clade B",9 nM
same,IC50,"R1166.c1, clade AE",> 20000 nM
same,IC50,"R2184.c4, clade AE",> 20000 nM
same,IC50,"R3265.c6, clade AE",13000 nM
same,IC50,"REJO.67, clade B",1040 nM
same,IC50,"RHPA.7, clade B",4 nM
same,IC50,"RW020.2, clade A",71 nM
same,IC50,"SC422.8, clade B",2 nM
same,IC50,"SF162.LS, clade B",1 nM
same,IC50,"SO18.18, clade C",3 nM
same,IC50,"SS1196.01, clade B",7050 nM
same,IC50,"T33-7, clade AG",2810 nM
same,IC50,"T250-4, clade AG",15 nM
same,IC50,"T251-18, clade AG",19 nM
same,IC50,"T253-11, clade AG",1 nM
same,IC50,"T255-34, clade AG",82 nM
same,IC50,"T257-31, clade AG",57 nM
same,IC50,"T266-60, clade AG",1370 nM
same,IC50,"T278-50, clade AG",0.2 nM
same,IC50,"T280-5, clade AG",10 nM
same,IC50,"TH023.6, clade AE",> 20000 nM
same,IC50,"TH966.8, clade AE",> 20000 nM
same,IC50,"TH976.17, clade AE",> 20000 nM
same,IC50,"THRO.18, clade B",3 nM
same,IC50,"TRJO.58, clade B",1 nM
same,IC50,"TRO.11, clade B",1080 nM
same,IC50,"TV1.29, clade C",67 nM
same,IC50,"TZA125.17, clade C",14 nM
same,IC50,"TZBD.02, clade C",5 nM
same,IC50,"UG021.16, clade D",13 nM
same,IC50,"UG024.2, clade D",566 nM
same,IC50,"UG037.8, clade A",1010 nM
same,IC50,"WITO.33, clade B",5 nM
same,IC50,"X1254.c3, clade G",43 nM
same,IC50,"X1632.S2.B10, clade G",54 nM
same,IC50,"X2088.c9, clade G",3 nM
same,IC50,"X2131.C1.B5, clade G",267 nM
same,IC50,"X2278.C2.B6, clade B",1260 nM
same,IC50,"YU2.DG, clade B",0.9 nM
same,IC50,"ZA012.29, clade C",7 nM
same,IC50,"ZM53.12, clade C",10 nM
same,IC50,"ZM55.28a, clade C",6 nM
same,IC50,"ZM106.9, clade C",17 nM
same,IC50,"ZM109.4, clade C",1 nM
same,IC50,"ZM135.10a, clade C",889 nM
same,IC50,"ZM176.66, clade C",18 nM
same,IC50,"ZM197.7, clade C",6 nM
same,IC50,"ZM214.15, clade C",2 nM
same,IC50,"ZM215.8, clade C",2 nM
same,IC50,"ZM233.6, clade C",0.8 nM
same,IC50,"ZM249.1, clade C",18 nM
same,IC50,"[…], clade C",2 nM
same,IC50,"[…], clade G",120 nM
